Data: US8202865B2, “Oxadiazole derivatives” (Merck Serono SA, priority 2007, dated 2012)
Structures can show the parent of a compound that is named as a salt.

Key:
[1] = target: T1, S1P3 (Homo sapiens, UniProt Q99500); assay: 35S-GTPγS binding, S1P3 membranes; format: biochemical; settings: membranes from CHO cells expressing S1P3; 60 min 30° C.
T1 construct: expressed in transfected cells; host or cells: CHO cells (membranes)
Experimental: (§1) Receptor binding assay: Membranes were prepared from CHO cells expressing S1P1 or S1P3 for use in ligand and […] binding studies. Cells were suspended in 50 mM TRIS, pH 7.4, 2 mM EDTA, 250 mM Sucrose (buffer A) and 1× Complete protease inhibitor cocktail (Roche), and disrupted at 4° C. by N2 decompression using a cell disruption bomb (Parr Instrument). Following centrifugation at 1000 RPM for 10 min at 4° C., the supernatant was suspended in buffer A and centrifuged again at 19000 RPM for 60 min at 4° C. The pellet was then suspended in 10 mM HEPES, pH 7.4, 1 mM EDTA, 250 mM Sucrose (Buffer B), and 1× Complete EDTA-free protease inhibitor cocktail and homogenized using a potter. Membranes were flash frozen in liquid N2 and stored at −80° C. [33P]sphingosine 1-phosphate (3000 Ci/mmol; American Radiolabeled Chemicals, Inc.) was added to test compounds in DMSO. Membranes and WGA SPA beads (GE Healthcare) were added to give a final volume of 100 μl in 96-well plates with assay concentrations of 25 pM or 10 pM [33P]sphingosine 1-phosphate (respectively for S1P1 or S1P3), 50 mM HEPES, pH 7.5, 5 mM MgCl2, 100 mM NaCl, 0.4% fatty acid-free BSA, 1-5 μg/well of proteins and 100 μg/well of WGA SPA beads. Binding was performed for 60 min at RT on a shaker and bound radioactivity was measured on a PerkinElmer 1450 MicroBeta counter. Specific binding was calculated by subtracting remaining radioactivity in the presence of 1000-fold excess of unlabeled S1P. Binding data were analyzed using the GraphPad Prism program.
Measurements of ^35S-GTPγS Binding: Membranes (1 to 10 μg protein) prepared as described above, were incubated in 96-well Scintiplates (PerkinElmer) with test compounds diluted in DMSO, in 180 μl of 20 mM HEPES, pH 7.4, 10 mM MgCl2, 2 μg/well Saponin, 0.2% fatty acid free BSA (Assay buffer), 140 mM NaCl and 1.7 μM GDP. The assay was initiated with the addition of 20 μl of 1.5 nM [35S]-GTPγS (1100 Ci/mmol; GE Healthcare) in assay buffer. After 60 min incubation at 30° C. on a shaker, plates were centrifuged for 10 min at 2000 RPM. Supernatant was discarded and membrane bound radioactivity was measured on a PerkinElmer 1450 MicroBeta counter. Triplicate samples were averaged and expressed as % response relative to S1P activation in absence of compound (n=2).

[2] = target: T2, S1P1 (Homo sapiens, UniProt P21453); assay: Receptor binding assay, [33P]sphingosine 1-phosphate, membranes, WGA SPA beads; settings: membranes from CHO cells expressing S1P1; 25 pM [33P]S1P; 60 min RT
T2 construct: expressed in transfected cells; host or cells: CHO cells (membranes)
T2 sequence (P21453 whole entry, species assumed): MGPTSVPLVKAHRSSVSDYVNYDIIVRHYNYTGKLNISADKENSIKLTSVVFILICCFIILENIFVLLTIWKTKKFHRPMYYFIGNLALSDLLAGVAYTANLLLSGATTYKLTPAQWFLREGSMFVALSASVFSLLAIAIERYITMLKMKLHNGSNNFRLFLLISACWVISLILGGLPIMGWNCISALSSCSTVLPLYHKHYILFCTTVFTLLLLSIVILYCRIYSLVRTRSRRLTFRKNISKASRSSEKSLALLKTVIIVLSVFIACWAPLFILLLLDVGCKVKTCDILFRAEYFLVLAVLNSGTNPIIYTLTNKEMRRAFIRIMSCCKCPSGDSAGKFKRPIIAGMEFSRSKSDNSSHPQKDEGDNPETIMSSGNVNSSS
Experimental: as §1

[3] = target: T2, S1P1; assay: 35S-GTPγS binding, S1P1 membranes; format: biochemical; settings: membranes from CHO cells expressing S1P1; 60 min 30° C.
In short: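 CHO-cell membranes expressing S1P1 or S1P3 (1-10 μg) incubated with compounds in 20 mM HEPES pH 7.4, 10 mM MgCl2, 140 mM NaCl, saponin, 0.2% BSA, 1.7 μM GDP and [35S]-GTPγS (20 μl of 1.5 nM added), 60 min at 30° C. Bound radioactivity expressed as % of S1P activation.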

T1 sequence (Q99500 whole entry, species assumed): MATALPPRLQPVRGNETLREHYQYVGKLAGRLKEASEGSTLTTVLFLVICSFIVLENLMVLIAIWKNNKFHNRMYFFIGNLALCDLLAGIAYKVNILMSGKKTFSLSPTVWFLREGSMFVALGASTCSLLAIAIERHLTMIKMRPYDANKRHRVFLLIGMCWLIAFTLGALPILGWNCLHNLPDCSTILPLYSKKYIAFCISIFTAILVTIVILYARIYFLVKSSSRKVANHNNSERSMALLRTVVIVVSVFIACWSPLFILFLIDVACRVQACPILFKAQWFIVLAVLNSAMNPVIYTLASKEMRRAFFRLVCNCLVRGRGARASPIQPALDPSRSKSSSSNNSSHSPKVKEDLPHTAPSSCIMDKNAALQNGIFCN

Work on `COCc1cc(-c2nc(-c3ccc(C(=O)O)c(F)c3)no2)ccc1-c1ccccc1OC` [Example 79, 2-fluoro-4-{5-[2′-methoxy-2-(methoxymethyl)biphenyl-4-yl]-1,2,4-oxadiazol-3-yl}benzoic acid] yielded an EC50 [1] greater than 20000 nM, a Ki [2] of 74 nM and an EC50 [3] of 208 nM.
`COCc1cc(-c2nc(-c3ccc(C(=O)NC(C)CC(=O)O)c(F)c3)no2)ccc1-c1ccccc1C` (stereo not drawn) [Example 123, 3-[(2-fluoro-4-{5-[2-(methoxymethyl)-2′-methylbiphenyl-4-yl]-1,2,4-oxadiazol-3-yl}benzoyl)amino]butanoic acid] showed an EC50 [1] of 1210 nM, a Ki [2] of 4 nM and an EC50 [3] of 37.3 nM.
`COCc1cc(-c2nc(-c3ccc(C(=O)NCC(=O)O)c(F)c3)no2)ccc1-c1ccccc1C` [Example 124, N-(2-fluoro-4-{5-[2-(methoxymethyl)-2′-methylbiphenyl-4-yl]-1,2,4-oxadiazol-3-yl}benzoyl)glycine] showed an EC50 [1] of 1000 nM, a Ki [2] of 2 nM and an EC50 [3] of 22 nM.
In the case of `COCc1cc(-c2nc(-c3ccc(C(=O)NCCc4nnn[nH]4)c(F)c3)no2)ccc1-c1ccccc1C` [Example 177, 2-fluoro-4-{5-[2-(methoxymethyl)-2′-methylbiphenyl-4-yl]-1,2,4-oxadiazol-3-yl}-N-[2-(1H-tetrazol-5-yl)ethyl]benzamide], the EC50 [1] is reported as 1150 nM, the Ki [2] is reported as 2 nM and the EC50 [3] is reported as 1.3 nM.
For `Cc1ccccc1-c1ccc(-c2nc(-c3ccc(NCC(=O)O)c(F)c3)no2)cc1C` [Example 56, N-{4-[5-(2,2′-dimethylbiphenyl-4-yl)-1,2,4-oxadiazol-3-yl]-2-fluorophenyl}glycine], the EC50 [1] was 14500 nM, the Ki [2] was 10 nM and the EC50 [3] was 70 nM.
`Cc1ccccc1-c1ccc(-c2nc(-c3ccc(C(=O)O)c(F)c3)no2)cc1C` [Example 4, 4-[5-(2,2′-dimethylbiphenyl-4-yl)-1,2,4-oxadiazol-3-yl]-2-fluorobenzoic acid] was tested, and the EC50 [1] was greater than 30000 nM, the Ki [2] was 126 nM and the EC50 [3] was 317 nM.
`CC1CCCCN1c1ccc(-c2nc(-c3ccc(C(=O)O)c(F)c3)no2)cc1C(F)(F)F` (stereo not drawn) [Example 19, 2-fluoro-4-{5-[4-(2-methylpiperidin-1-yl)-3-(trifluoromethyl)phenyl]-1,2,4-oxadiazol-3-yl}benzoic acid] showed an EC50 [1] greater than 30000 nM, a Ki [2] of 110 nM and an EC50 [3] of 347 nM.
In the case of `COCc1cc(-c2nc(-c3cccc(C(=O)NCCC#N)c3)no2)ccc1-c1ccccc1C` [Example 183, N-(2-cyanoethyl)-3-{5-[2-(methoxymethyl)-2′-methylbiphenyl-4-yl]-1,2,4-oxadiazol-3-yl}benzamide], the EC50 [1] is reported as 5600 nM, the Ki [2] is reported as 2 nM and the EC50 [3] is reported as 2.4 nM.
`CC1CCCCN1c1ccc(-c2nc(-c3ccc(C(=O)O)c(F)c3)no2)cc1C#N` (stereo not drawn) [Example 29, 4-{5-[3-cyano-4-(2-methylpiperidin-1-yl)phenyl]-1,2,4-oxadiazol-3-yl}-2-fluorobenzoic acid] showed an EC50 [1] greater than 30000 nM, a Ki [2] of 70 nM and an EC50 [3] of 430 nM.
In the case of `COCc1cc(-c2nc(-c3ccc(C(=O)O)c(F)c3)no2)ccc1-c1cccc(C)c1C` [Example 95, 2-fluoro-4-{5-[2-(methoxymethyl)-2′,3′-dimethylbiphenyl-4-yl]-1,2,4-oxadiazol-3-yl}benzoic acid], the EC50 [1] is reported as 4960 nM, the Ki [2] is reported as 16 nM and the EC50 [3] is reported as 48 nM.
Work on `CC1CCCCN1c1ccc(-c2nc(-c3ccc(C(=O)O)cc3F)no2)cc1C(F)(F)F` (stereo not drawn) [Example 27, 3-fluoro-4-{5-[4-(2-methylpiperidin-1-yl)-3-(trifluoromethyl)phenyl]-1,2,4-oxadiazol-3-yl}benzoic acid] yielded an EC50 [1] greater than 20000 nM, a Ki [2] of 505 nM and an EC50 [3] of 1100 nM.
With `COCc1cc(-c2nc(-c3ccc(OCC(=O)O)c(F)c3)no2)ccc1-c1ccccc1C` [Example 166, (2-fluoro-{5-[2-(methoxymethyl)-2′-methylbiphenyl-4-yl]-1,2,4-oxadiazol-3-yl}phenoxy)acetic acid] the EC50 [1] was 219 nM, the Ki [2] was 11 nM and the EC50 [3] was 14 nM.
`COCc1cc(-c2nc(-c3ccc(C(=O)NCCCC(=O)O)c(F)c3)no2)ccc1-c1ccccc1C` [Example 127, 4-[(2-fluoro-4-{5-[2-(methoxymethyl)-2′-methylbiphenyl-4-yl]-1,2,4-oxadiazol-3-yl}benzoyl)amino]butanoic acid] was tested, and the EC50 [1] was 1220 nM, the Ki [2] was 2.1 nM and the EC50 [3] was 6 nM.
For `COc1ncccc1-c1ccc(-c2nc(-c3ccc(C(=O)O)c(F)c3)no2)cc1C` [Example 28, 2-fluoro-4-{5-[4-(2-methoxypyridin-3-yl)-3-methylphenyl]-1,2,4-oxadiazol-3-yl}benzoic acid], the EC50 [1] was greater than 30000 nM, the Ki [2] was 190 nM and the EC50 [3] was 834 nM.
`Cc1ccccc1-c1ccc(-c2nc(-c3ccc(OCC(=O)O)c(F)c3)no2)cc1C` [Example 48, {4-[5-(2,2′-dimethylbiphenyl-4-yl)-1,2,4-oxadiazol-3-yl]-2-fluorophenoxy}acetic acid] was tested, and the EC50 [1] was 17000 nM, the Ki [2] was 40 nM and the EC50 [3] was 129 nM.
Work on `COCc1cc(-c2nc(-c3ccc(C(=O)O)c(F)c3)no2)ccc1-c1cc(F)ccc1C` [Example 84, 2-fluoro-4-{5-[5′-fluoro-2-(methoxymethyl)-2′-methylbiphenyl-4-yl]-1,2,4-oxadiazol-3-yl}benzoic acid] yielded an EC50 [1] of 2800 nM, a Ki [2] of 55 nM and an EC50 [3] of 34 nM.
With `COCc1cc(-c2nc(-c3cccc(C(=O)NCCNC(C)=O)c3)no2)ccc1-c1ccccc1C` [Example 184, N-[2-(acetylamino)ethyl]-3-{5-[2-(methoxymethyl)-2′-methylbiphenyl-4-yl]-1,2,4-oxadiazol-3-yl}benzamide] the EC50 [1] was 4490 nM, the Ki [2] was 1 nM and the EC50 [3] was 3.3 nM.
For `COCc1cc(-c2nc(-c3cc(F)c(C(=O)O)cc3F)no2)ccc1-c1ccccc1C` [Example 97, 2,5-difluoro-4-{5-[2-(methoxymethyl)-2′-methylbiphenyl-4-yl]-1,2,4-oxadiazol-3-yl}benzoic acid], the EC50 [1] was 1940 nM, the Ki [2] was 8 nM and the EC50 [3] was 64 nM.
`Cc1cscc1-c1ccc(-c2nc(-c3ccc(C(=O)O)c(F)c3)no2)cc1C(F)(F)F` [Example 23, 2-fluoro-4-{5-[4-(4-methyl-3-thienyl)-3-(trifluoromethyl)phenyl]-1,2,4-oxadiazol-3-yl}benzoic acid] showed an EC50 [1] of 14900 nM, a Ki [2] of 90 nM and an EC50 [3] of 197 nM.
`Cc1ccccc1-c1ccc(-c2nc(-c3ccc(C(=O)O)c(F)c3)no2)cc1CN1CCOCC1` [Example 75, 2-fluoro-4-{5-[2′-methyl-2-(morpholin-4-ylmethyl)biphenyl-4-yl]-1,2,4-oxadiazol-3-yl}benzoic acid, Trifluoroacetic acid salt] gave an EC50 [1] of 1350 nM, a Ki [2] of 177 nM and an EC50 [3] of 182 nM.
`CCOCc1cc(-c2nc(-c3ccc(C(=O)O)c(F)c3)no2)ccc1-c1ccccc1C` [Example 63, 4-{5-[2-(ethoxymethyl)-2′-methylbiphenyl-4-yl]-1,2,4-oxadiazol-3-yl}-2-fluorobenzoic acid] was tested, and the EC50 [1] was 615 nM, the Ki [2] was 30 nM and the EC50 [3] was 60 nM.
With `CCc1ccccc1-c1ccc(-c2nc(-c3cccc(CN(C)CC(=O)O)c3)no2)cc1COC` [Example 143, N-(3-{5-[2′-ethyl-2-(methoxymethyl)biphenyl-4-yl]-1,2,4-oxadiazol-3-yl}benzyl)-N-methylglycine, hydrochloride salt] the EC50 [1] was 281 nM, the Ki [2] was 0.8 nM and the EC50 [3] was 0.6 nM.
Compound `O=C(O)c1ccc(-c2noc(-c3ccc(-c4ccccc4Cl)cc3)n2)cc1F` [Example 2, 4-[5-(2′-chlorobiphenyl-4-yl)-1,2,4-oxadiazol-3-yl]-2-fluorobenzoic acid] has an EC50 [1] greater than 30000 nM, a Ki [2] of 1500 nM and an EC50 [3] of 4720 nM.
Work on `CCOC(=O)C1(NC(=O)c2ccc(-c3noc(-c4ccc(-c5ccccc5C)c(COC)c4)n3)cc2F)CC1` [Example 118, Ethyl 1-[(2-fluoro-4-{5-[2-(methoxymethyl)-2′-methylbiphenyl-4-yl]-1,2,4-oxadiazol-3-yl}benzoyl)amino]cyclopropanecarboxylate] yielded an EC50 [1] of 2160 nM, a Ki [2] of 2 nM and an EC50 [3] of 7 nM.
